Laboratory results from ChEMBL document CHEMBL6153097, “Design, synthesis, and biological evaluation of Flavokavain B derivatives as potent TRF2 inhibitors for the treatment of Osteosarcoma” (Eur J Med Chem, 2025).
The source made the active and inactive calls. The rule behind the calls is not given here.

Legend:
[1] = Toxicity in female BALB/c mouse model xenografted with human MG-63 cells assessed as effect on body weight at 10 to 60 mg/kg, via oral gavage administered once a day for 3 weeks; assay type: organism-based; settings: in vivo, 504 h, dose 10-60 mg/kg
[2] = system: U2OS; test: Induction of apoptosis in human U2OS cells assessed as reduction in colocalization of TRF2 with telomere at 2 to 4 microM by Immunofluorescence based FISH assay; assay type: functional, cell-based; settings: dose 2-4 µM
[3] = system: MG-63; test: Induction of apoptosis in human MG-63 cells assessed as viable cells at 2 uM measured after 48 hrs annexin-V and propidium iodide staining based flow cytometry analysis (reference value: 90.7%); assay type: functional; settings: read-out: Activity
[4] = system: MG-63; test: Induction of DNA damage in human MG-63 cells assessed as increase in 53BP1 foci by Immunofluorescence based FISH assay; assay type: functional, cell-based; settings: dose 2-4 µM
[5] = system: U2OS; test: Induction of apoptosis in human U2OS cells assessed as reduction in TRF2 foci at 2 to 4 microM by Immunofluorescence based FISH assay; assay type: functional, cell-based; settings: dose 2-4 µM
[6] = system: MG-63; test: Induction of apoptosis in human MG-63 cells assessed as early apoptotic cells at 2 uM measured after 48 hrs annexin-V and propidium iodide staining based flow cytometry analysis (reference value: 0.66%); assay type: functional
[7] = system: U2OS; test: Induction of apoptosis in human U2OS cells assessed as late apoptotic cells at 4 uM measured after 48 hrs annexin-V and propidium iodide staining based flow cytometry analysis (reference value: 5.94%); assay type: functional
[8] = Acute toxicity in mouse assessed as aspartate transaminase level (AST) level in serum at 30 to 90 mg/kg, po single dose measured for 7 days; assay type: organism-based; settings: in vivo, 168 h, dose 30-90 mg/kg, time 7 day
[9] = Inhibition of TRF2 expression in human MG-63 cells at 2 uM measured after 48 hrs by Western blot analysis relative to control; assay type: functional
[10] = system: MG-63; test: […] inhibition of TRF2 expression in human MG-63 cells at 4 uM measured upto 12 hrs measured after drug washout by Western blot analysis; assay type: functional, cell-based
[11] = system: U2OS; test: Antiproliferative activity against human U2OS cells assessed as reduction in cell viability at 2 to 4 uM measured for 8 days by PDL assay; assay type: functional, cell-based; settings: dose 2-4 µM, time 8.0 day
[12] = system: MG-63; test: Antiproliferative activity against human MG-63 cells assessed as reduction in cell viability incubated for 48 hrs by MTT assay; assay type: functional, cell-based; settings: MG-63, 48 h
[13] = Cytotoxicity against […] MLO-Y4 cells assessed as cell viability incubated for 48 hrs by MTT assay; assay type: toxicity, cell-based; settings: mouse
[14] = system: MG-63; test: Antiproliferative activity against human MG-63 cells assessed as reduction in cell viability at 2 to 4 uM measured for 8 days by PDL assay; assay type: functional, cell-based; settings: dose 2-4 µM, time 8.0 day
[15] = system: U2OS; test: Induction of DNA damage in human U2OS cells assessed as increase in telomere dysfunction-foci at 4 uM by Immunofluorescence based FISH assay; assay type: functional, cell-based
[16] = Acute toxicity in mouse assessed as change in weight of heart at 30 to 90 mg/kg, po single dose measured for 7 days; assay type: organism-based; settings: in vivo, 168 h, dose 30-90 mg/kg, time 7 day
[17] = system: U2OS; test: Induction of DNA damage response in human U2OS cells assessed as reduction in TRF2 expression by measuring accumulation of telomere-free ends at 2 to 4 uM by FITC/DAPI based Quantitative FISH (Q-FISH) assay; assay type: functional, cell-based; settings: dose 2-4 µM
[18] = Inhibition of TRF2 expression in human U2OS cells at 2 uM measured after 48 hrs by Western blot analysis relative to control; assay type: functional
[19] = system: MG-63; test: Induction of DNA damage in human MG-63 cells assessed as upregulation of gamma-H2AX level by Immunofluorescence based FISH assay; assay type: functional, cell-based; settings: dose 2-4 µM
[20] = Acute toxicity in mouse assessed as effect on body weight at 30 to 90 mg/kg, po single dose measured for 7 days; assay type: organism-based; settings: in vivo, 168 h, dose 30-90 mg/kg, time 7 day
[21] = system: U2OS; test: Induction of apoptosis in human U2OS cells assessed as late apoptotic cells at 2 uM measured after 48 hrs annexin-V and propidium iodide staining based flow cytometry analysis (reference value: 5.94%); assay type: functional
[22] = system: MG-63; test: Induction of apoptosis in human MG-63 cells assessed as necrotic cells at 4 uM measured after 48 hrs annexin-V and propidium iodide staining based flow cytometry analysis (reference value: 0.52%); assay type: functional
[23] = system: MG-63; test: Induction of apoptosis in human MG-63 cells assessed as early apoptotic cells at 4 uM measured after 48 hrs annexin-V and propidium iodide staining based flow cytometry analysis (reference value: 0.66%); assay type: functional
[24] = system: MG-63; test: Downregulation of TRF expression levels in human MG-63 cells measured after 48 hrs by Western blot analysis; assay type: functional, cell-based; settings: dose 2-4 µM
[25] = system: MG-63; test: Induction of apoptosis in human MG-63 cells assessed as late apoptotic cells at 2 uM measured after 48 hrs annexin-V and propidium iodide staining based flow cytometry analysis (reference value: 7.71%); assay type: functional
[26] = system: U2OS; test: Antiproliferative activity against human U2OS cells assessed as reduction in cell viability incubated for 48 hrs by MTT assay; assay type: functional, cell-based
[27] = system: MG-63; test: Induction of apoptosis in human MG-63 cells assessed as viable cells at 4 uM measured after 48 hrs annexin-V and propidium iodide staining based flow cytometry analysis (reference value: 90.7%); assay type: functional; settings: read-out: Activity
[28] = system: MG-63; test: Antitumor activity against human MG-63 cells xenografted in female BALB/c mouse model assessed as nucleocytoplasmic separation in tumor tissue treated via oral gavage administered once a day for 3 weeks by HE staining analysis; assay type: functional, cell-based; settings: dose 10-60 mg/kg
[29] = system: MG-63; test: Induction of apoptosis in human MG-63 cells assessed as necrotic cells at 2 uM measured after 48 hrs annexin-V and propidium iodide staining based flow cytometry analysis (reference value: 0.52%); assay type: functional
[30] = system: U2OS; test: Induction of DNA damage in human U2OS cells assessed as upregulation of gamma-H2AX level by Immunofluorescence based FISH assay; assay type: functional, cell-based; settings: dose 2-4 µM
[31] = system: MG-63; test: Induction of apoptosis in human MG-63 cells assessed as reduction in colocalization of TRF2 with telomere at 2 to 4 microM by Immunofluorescence based FISH assay; assay type: functional, cell-based; settings: dose 2-4 µM
[32] = system: U2OS; test: Induction of apoptosis in human U2OS cells assessed as early apoptotic cells at 2 uM measured after 48 hrs annexin-V and propidium iodide staining based flow cytometry analysis (reference value: 2.38%); assay type: functional
[33] = system: MG-63; test: Inhibition of TRF2 expression in human MG-63 cells by co-immunoprecipitation based Western blot analysis; assay type: functional, cell-based
[34] = Acute toxicity in mouse assessed as change in weight of spleen at 30 to 90 mg/kg, po single dose measured for 7 days; assay type: organism-based; settings: in vivo, 168 h, dose 30-90 mg/kg, time 7 day
[35] = system: MG-63; test: Antitumor activity against human MG-63 cells xenografted in female BALB/c mouse model assessed as tumour growth suppression at 10 to 60 mg/kg, via oral gavage administered once a day for 3 weeks; assay type: functional, organism-based; settings: dose 10-60 mg/kg
[36] = system: U2OS; test: Induction of apoptosis in human U2OS cells assessed as necrotic apoptotic cells at 2 uM measured after 48 hrs annexin-V and propidium iodide staining based flow cytometry analysis (reference value: 2.46%); assay type: functional
[37] = system: U2OS; test: Induction of DNA damage in human U2OS cells assessed as increase in 53BP1 foci by Immunofluorescence based FISH assay; assay type: functional, cell-based; settings: dose 2-4 µM
[38] = system: U2OS; test: Inhibition of TRF2 expression in human U2OS cells by co-immunoprecipitation based Western blot analysis; assay type: functional, cell-based
[39] = system: MG-63; test: Induction of apoptosis in human MG-63 cells assessed as reduction in TRF2 foci at 2 to 4 microM by Immunofluorescence based FISH assay; assay type: functional, cell-based; settings: dose 2-4 µM

COc1cc(OC)c(C(=O)/C=C/c2cccc(Br)c2)c(OC)c1
Activity [1]: Non-toxic
Activity [2]: Active
viability at 2 µM [3]: 47.9%
Activity [4]: Dose-dependent-effect
Activity [5]: Active
Activity [6]: 11.2%
Activity [7]: 16.3%
Activity [8]: Non-toxic
inhibition at 2 µM [9]: 54%
Activity [10]: Active; Returned To Control Levels Within 4 Hrs
Activity [11]: Active
IC50 [12]: 1.52 µM
IC50 at 48 h [13]: 12.3 µM
Activity [14]: Active
Activity [15]: Active
Activity [16]: Non-toxic
Activity [17]: Active
inhibition at 2 µM [18]: 55.1%
Activity [19]: Dose-dependent-effect
Activity [20]: Non-toxic
Activity [21]: 18.3%
Activity [22]: 5.47%
Activity [23]: 15.2%
Activity [24]: Dose-dependent-effect
Activity [25]: 38.2%
IC50 [26]: 5.28 µM
viability at 4 µM [27]: 17.5%
Activity [28]: Dose-dependent-effect; Significant Than Control
Activity [29]: 2.69%
Activity [30]: Dose-dependent-effect
Activity [31]: Active
Activity [32]: 12.9%
inhibition [33]: Active
Activity [34]: Non-toxic
Activity [35]: Active; Stronger Than Control Drugs
Activity [36]: 1.18%
Activity [37]: Dose-dependent-effect
inhibition [38]: Active
Activity [39]: Active
